# According to patent US20230167103A1 (Bayer Aktiengesellschaft, priority 2020, published 2023):
# Molecular target: T1, human DGKζ (Homo sapiens, UniProt Q13574)
# T1 construct: made in house; host or cells: Sf9 insect cells, baculovirus
# Test: Human DGKζ kinase activity inhibition assay (ADP-Glo)
# Format: biochemical
# Conditions: example compounds; recombinant full-length human DGKζ, 1,2-dioleoyl-sn-glycerol 7 μM, ATP 55 μM, 20 min at 22° C.; read-out: IC50 values of examples in in vitro human DGKζ kinase activity inhibition assays
# Procedure: Human diacylglycerol kinase zeta (DGKζ) inhibitory activity of compounds of the present invention was quantified employing the human DGKζ kinase activity assay as described in the following paragraphs. In essence, the enzyme activity was measured by quantification of the adenosine-di-phosphate (ADP) generated as a co-product of the enzyme reaction via the “ADP-Glo™ Kinase Assay” kit from the company Promega. This detection system works as follows: In a first step the adenosine-tri-phosphate (ATP) not consumed in the kinase reaction is quantitatively converted to cyclic adenosine-mono-phosphate (cAMP) employing an adenylate cyclase (“ADP-Glo-reagent”), then the adenylate cyclase is stopped and the ADP generated in the kinase reaction is converted to ATP, which subsequently generates in a luciferase-based reaction a glow-luminescence signal (“Kinase Detection Reagent”).
# C-terminally FLAG-tagged, recombinant full-length human DGKζ (inhouse expressed in baculovirus infected insect cells, purified using anti-Flag pulldown and size exclusion chromatography) was used as enzyme. As an alternative, commercially available enzyme by Carnabio can be used. As substrate for the kinase, 1,2-dioleoyl-sn-glycerol, reconstituted in octyl-β-D-glucopyranoside micelles, was used. […] Subsequently, 22.55 volumes of a 510 mM solution of octyl-β-D-glucopyranoside (Sigma-Aldrich, Cat. #O8001-10G) in 50 mM MOPS buffer (pH 7.4) were added, and the mixture was sonicated in an ultrasonic bath for 20 s. Then 35 volumes of 50 mM MOPS buffer (pH 7.4) were added to yield a solution of 0.28 mM 1,2 dioleoyl-sn-glycerol and 200 mM octyl-β-D-glucopyranoside, which was aliquoted, flash-frozen in liquid nitrogen, and stored at −20° C. until use.
# For the assay 50 nl of a 100-fold concentrated solution of the test compound in dimethyl sulfoxide (DMSO, Sigma) was pipetted into either a white 1536-well or a white low-volume 384-well microtiter plate (both Greiner Bio-One, Frickenhausen, Germany). […] The concentration of DGKζ was adjusted depending of the activity of the enzyme lot and was chosen appropriate to have the assay in the linear range, a typical concentration is about 0.1 nM. The reaction was stopped by the addition of 2.5 μL of “ADP-Glo-reagent” (1 to 1.5 diluted with water) and the resulting mixture was incubated at 22° C. for 1 h to convert the ATP not consumed in the kinase reaction completely to cAMP. Subsequently 2.5 μl of the “kinase detection reagent” (1.2 fold more concentrated than recommended by the producer) were added, the resulting mixture was incubated at 22° C. for 1 h and then the luminescence measured with a suitable measurement instrument (e.g. Viewlux™ from Perkin-Elmer). The amount of emitted light was taken as a measure for the amount of ADP generated and thereby for the activity of the DGKζ.
# The data were normalised (enzyme reaction without inhibitor=0% inhibition, all other assay components but no enzyme=100% inhibition).
# T1 sequence (Q13574 with tags, fused parts or gaps): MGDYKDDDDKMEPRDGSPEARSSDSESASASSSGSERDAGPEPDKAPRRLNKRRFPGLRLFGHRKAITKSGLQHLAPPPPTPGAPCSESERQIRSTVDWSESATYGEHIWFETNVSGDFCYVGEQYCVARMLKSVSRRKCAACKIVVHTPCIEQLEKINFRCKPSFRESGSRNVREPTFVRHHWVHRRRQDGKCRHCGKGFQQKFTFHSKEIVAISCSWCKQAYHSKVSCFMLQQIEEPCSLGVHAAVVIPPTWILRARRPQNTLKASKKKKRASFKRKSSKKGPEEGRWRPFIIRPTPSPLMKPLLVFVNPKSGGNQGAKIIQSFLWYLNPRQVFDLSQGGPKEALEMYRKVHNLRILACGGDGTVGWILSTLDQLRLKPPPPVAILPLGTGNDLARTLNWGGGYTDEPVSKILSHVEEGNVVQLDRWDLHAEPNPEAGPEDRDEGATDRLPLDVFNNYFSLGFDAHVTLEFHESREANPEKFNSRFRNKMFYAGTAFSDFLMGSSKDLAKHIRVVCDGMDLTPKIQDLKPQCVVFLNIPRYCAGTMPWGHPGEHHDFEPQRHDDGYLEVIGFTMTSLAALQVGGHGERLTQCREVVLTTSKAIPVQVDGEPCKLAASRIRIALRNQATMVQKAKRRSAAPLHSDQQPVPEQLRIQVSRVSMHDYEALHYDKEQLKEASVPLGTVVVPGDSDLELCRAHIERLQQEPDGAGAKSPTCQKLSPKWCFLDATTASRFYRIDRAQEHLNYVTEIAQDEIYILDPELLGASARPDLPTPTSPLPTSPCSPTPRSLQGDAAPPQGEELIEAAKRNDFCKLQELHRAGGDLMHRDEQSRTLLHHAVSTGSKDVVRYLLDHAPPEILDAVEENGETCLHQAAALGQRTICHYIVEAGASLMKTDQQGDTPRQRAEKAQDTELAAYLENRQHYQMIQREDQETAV
row,IC50 [nM],Structure (SMILES)
1,10,"CC(C(N)=O)N(c1ccc(F)cc1)c1nc(N)c(C(=O)c2cc(CN3CCC(F)(F)C(C)C3)no2)s1 (mixture of isomers) [Example 76, 2-(N-[4-amino-5-[3-[(4,4-difluoro-3-methyl-1-piperidyl)methyl]isoxazole-5-carbonyl]thiazol-2-yl]-4-fluoro-anilino)propanamide]"
2,242,"CC(C(N)=O)N(c1ccc(F)cc1)c1nc(N)c(C(=O)c2cc(CN3CCC(F)C3)no2)s1 (mixture of isomers) [Example 77, 2-(N-[4-amino-5-[3-[(3-fluoropyrrolidin-1-yl)methyl]isoxazole-5-carbonyl]thiazol-2-yl]-4-fluoro-anilino)propanamide]"
3,9,"CC(C(N)=O)N(c1ccc(F)cc1)c1nc(N)c(C(=O)c2nc(-c3ccc(Cl)cc3)no2)s1 (racemic) [Example 1, rac-2-(N-[4-amino-5-[3-(4-chlorophenyl)-1,2,4-oxadiazole-5-carbonyl]thiazol-2-yl]-4-fluoro-anilino)propanamide]"
4,27,"CC(C(N)=O)N(c1ccc(F)cc1)c1nc(N)c(C(=O)c2cc(OCc3ccccc3)no2)s1 (racemic) [Example 2, rac-2-(N-[4-amino-5-(3-benzyloxyisoxazole-5-carbonyl)thiazol-2-yl]-4-fluoro-anilino)propanamide]"
5,104,"CC(C(N)=O)N(c1ccc(F)cc1)c1nc(N)c(C(=O)c2cc(-c3ccccc3)no2)s1 (racemic) [Example 3, rac-2-(N-[4-amino-5-(3-phenylisoxazole-5-carbonyl)thiazol-2-yl]-4-fluoro-anilino)propanamide]"
6,37,"CC(C(N)=O)N(c1ccc(F)cc1)c1nc(N)c(C(=O)c2cc(-c3ccc(Cl)cc3Cl)no2)s1 (racemic) [Example 4, rac-2-(N-[4-amino-5-[3-(2,4-dichlorophenyl)isoxazole-5-carbonyl]thiazol-2-yl]-4-fluoro-anilino)propanamide]"
7,67,"CC(C(N)=O)N(c1ccc(F)cc1)c1nc(N)c(C(=O)c2cc(-c3ccc(Cl)cc3)no2)s1 (racemic) [Example 5, rac-2-(N-[4-amino-5-[3-(4-chlorophenyl)isoxazole-5-carbonyl]thiazol-2-yl]-4-fluoro-anilino)propanamide]"
8,123,"CC(C(N)=O)N(c1ccc(F)cc1)c1nc(N)c(C(=O)c2cc(Br)no2)s1 (racemic) [Example 6, rac-2-(N-[4-amino-5-(3-bromoisoxazole-5-carbonyl)thiazol-2-yl]-4-fluoro-anilino)propanamide]"
9,407,"CC(C(N)=O)N(c1ccc(F)cc1)c1nc(N)c(C(=O)c2cc(-c3cccnc3)no2)s1 (racemic) [Example 7, rac-2-(N-[4-amino-5-[3-(3-pyridyl)isoxazole-5-carbonyl]thiazol-2-yl]-4-fluoro-anilino)propanamide]"
10,728,"CC(C(N)=O)N(c1ccc(F)cc1)c1nc(N)c(C(=O)c2cc(-c3ccncc3)no2)s1 (racemic) [Example 8, rac-2-(N-[4-amino-5-[3-(4-pyridyl)isoxazole-5-carbonyl]thiazol-2-yl]-4-fluoro-anilino)propanamide]"
11,189,"CCOC(=O)c1cc(C(=O)c2sc(N(c3ccc(F)cc3)C(C)C(N)=O)nc2N)on1 (racemic) [Example 9, rac-Ethyl 5-[4-amino-2-(N-(2-amino-1-methyl-2-oxo-ethyl)-4-fluoro-anilino)thiazole-5-carbonyl]isoxazole-3-carboxylate]"
12,23,"CC(C(N)=O)N(c1ccc(F)cc1)c1nc(N)c(C(=O)c2cc(C(=O)Nc3ccccc3)no2)s1 (racemic) [Example 10, rac-5-[4-amino-2-(N-(2-amino-1-methyl-2-oxo-ethyl)-4-fluoro-anilino)thiazole-5-carbonyl]-N-phenyl-isoxazole-3-carboxamide]"
13,2360,"CC(C(N)=O)N(c1ccc(F)cc1)c1nc(N)c(C(=O)c2cc(C(=O)N[C@@H]3C[C@@H]3F)no2)s1 (mixture of isomers) [Example 11, 5-[4-amino-2-(N-(2-amino-1-methyl-2-oxo-ethyl)-4-fluoro-anilino)thiazole-5-carbonyl]-N-[(cis)-2-fluorocyclopropyl]isoxazole-3-carboxamide]"
14,938,"CC(C(N)=O)N(c1ccc(F)cc1)c1nc(N)c(C(=O)c2cc(C(=O)Nc3cnn(C)c3)no2)s1 (racemic) [Example 12, rac-5-[4-amino-2-(N-(2-amino-1-methyl-2-oxo-ethyl)-4-fluoro-anilino)thiazole-5-carbonyl]-N-(1-methylpyrazol-4-yl)isoxazole-3-carboxamide]"
15,977,"CC(C(N)=O)N(c1ccc(F)cc1)c1nc(N)c(C(=O)c2cc(C(=O)N3CCOCC3)no2)s1 (racemic) [Example 13, rac-2-(N-[4-amino-5-[3-(morpholine-4-carbonyl)isoxazole-5-carbonyl]thiazol-2-yl]-4-fluoro-anilino)propanamide]"
16,565,"CC(C(N)=O)N(c1ccc(F)cc1)c1nc(N)c(C(=O)c2cc(C(=O)NC3CC3)no2)s1 (racemic) [Example 15, rac-5-[4-amino-2-(N-(2-amino-1-methyl-2-oxo-ethyl)-4-fluoro-anilino)thiazole-5-carbonyl]-N-cyclopropyl-isoxazole-3-carboxamide]"
17,420,"CC(C(N)=O)N(c1ccc(F)cc1)c1nc(N)c(C(=O)c2cc(C(=O)Nc3ccncc3)no2)s1 (racemic) [Example 16, rac-5-[4-amino-2-(N-(2-amino-1-methyl-2-oxo-ethyl)-4-fluoro-anilino)thiazole-5-carbonyl]-N-(4-pyridyl)isoxazole-3-carboxamide]"
18,699,"CC(C(N)=O)N(c1ccc(F)cc1)c1nc(N)c(C(=O)c2cc(C(=O)NCC(F)F)no2)s1 (racemic) [Example 17, rac-5-[4-amino-2-(N-(2-amino-1-methyl-2-oxo-ethyl)-4-fluoro-anilino)thiazole-5-carbonyl]-N-(2,2-difluoroethyl)isoxazole-3-carboxamide]"
19,492,"CC(C(N)=O)N(c1ccc(F)cc1)c1nc(N)c(C(=O)c2cc(C(=O)N3CCC3)no2)s1 (racemic) [Example 18, rac-2-(N-[4-amino-5-[3-(azetidine-1-carbonyl)isoxazole-5-carbonyl]thiazol-2-yl]-4-fluoro-anilino)propanamide]"
20,315,"CC(C(N)=O)N(c1ccc(F)cc1)c1nc(N)c(C(=O)c2cc(C(=O)N3CCCC3)no2)s1 (racemic) [Example 19, rac-2-(N-[4-amino-5-[3-(pyrrolidine-1-carbonyl)isoxazole-5-carbonyl]thiazol-2-yl]-4-fluoro-anilino)propanamide]"
21,300,"CC(C(N)=O)N(c1ccc(F)cc1)c1nc(N)c(C(=O)c2cc(C(=O)Nc3cccnc3)no2)s1 (racemic) [Example 20, rac-5-[4-amino-2-(N-(2-amino-1-methyl-2-oxo-ethyl)-4-fluoro-anilino)thiazole-5-carbonyl]-N-(3-pyridyl)isoxazole-3-carboxamide]"
22,293,"CC(C(N)=O)N(c1ccc(F)cc1)c1nc(N)c(C(=O)c2cc(C(=O)NC3CCC3)no2)s1 (racemic) [Example 21, rac-5-[4-amino-2-(N-(2-amino-1-methyl-2-oxo-ethyl)-4-fluoro-anilino)thiazole-5-carbonyl]-N-cyclobutyl-isoxazole-3-carboxamide]"
23,182,"CC(C(N)=O)N(c1ccc(F)cc1)c1nc(N)c(C(=O)c2cc(C(=O)NCC3CC3)no2)s1 (racemic) [Example 22, rac-5-[4-amino-2-(N-(2-amino-1-methyl-2-oxo-ethyl)-4-fluoro-anilino)thiazole-5-carbonyl]-N-(cyclopropylmethyl)isoxazole-3-carboxamide]"
24,212,"CC(C(N)=O)N(c1ccc(F)cc1)c1nc(N)c(C(=O)c2cc(C(=O)NCC(F)(F)F)no2)s1 (racemic) [Example 23, rac-5-[4-amino-2-(N-(2-amino-1-methyl-2-oxo-ethyl)-4-fluoro-anilino)thiazole-5-carbonyl]-N-(2,2,2-trifluoroethyl)isoxazole-3-carboxamide]"
